This is an account of results in patent US20240409585A1, “MACROCYCLIC IMMUNOMODULATORS” (priority 2021, published 2024).

What is called IC50 is the concentration that gives 50% inhibition.

Numbered stars: 1 amine (or outer) side, 2 acyl side, 3 side chain; on linkers, the order of the positions; unused ones are H or OH. Bridge positions count the residues as written; N and C are the ends. Square brackets hold non-standard residues; d marks the D form. Peptide text beside a SMILES is read from it. * marks the point of attachment. ξ: configuration not given here. Ala(piperidin-4-yl) = O=C([C@H](CC1CCN([*:3])CC1)N[*:1])[*:2]; Tyr(3-NO2) = N[C@@H](Cc1ccc(O)c([N+](=O)[O-])c1)C(=O)O; X40 = O=C([C@H](Cc1ccc(-c2cccc(O)c2)cc1)N[*:1])[*:2]; Phe(4-COOH) = N[C@@H](Cc1ccc(C(=O)O)cc1)C(=O)O; Bip = N[C@@H](Cc1ccc(-c2ccccc2)cc1)C(=O)O; Phe(3-Me) = Cc1cccc(C[C@H](N)C(=O)O)c1; Val(3-OH) = CC(C)(O)[C@H](N)C(=O)O; Ala(cPr) = N[C@@H](CC1CC1)C(=O)O; 3Pal = N[C@@H](Cc1cccnc1)C(=O)O; 4Pal = N[C@@H](Cc1ccncc1)C(=O)O; Cha = N[C@@H](CC1CCCCC1)C(=O)O; Cit = NC(=O)NCCC[C@H](N)C(=O)O; Ile(3ξ) = CCC(C)[C@H](N)C(=O)O; Thr(3ξ) = CC(O)[C@H](N)C(=O)O; Carboxymethyl = O=C(O)C*; NMeA = CN[C@@H](C)C(=O)O; Orn = NCCC[C@H](N)C(=O)O; Pra = C#CC[C@H](N)C(=O)O; Aze = O=C(O)[C@@H]1CCN1; Dab = NCC[C@H](N)C(=O)O

The assay has as its target T1, PE-labeled human PD-L1-Ig binding to Jurkat cell line over-expressing human PD-1 (Jurkat-PD-1) (Homo sapiens, UniProt Q15116).
T1 construct: expressed in transfected cells; host or cells: Jurkat
Nature of the assay: Jurkat-PD-1 Cell Binding High-Content Screening Assay (CBA): Method 1. Particulars: Jurkat-hPD-1 cells, PE-labeled PD-L1-Ig 20 nM final; read-out: Jurkat HPDL1 PD1 IC50 (uM) (Method 1).

T1 sequence (Q15116 25-288): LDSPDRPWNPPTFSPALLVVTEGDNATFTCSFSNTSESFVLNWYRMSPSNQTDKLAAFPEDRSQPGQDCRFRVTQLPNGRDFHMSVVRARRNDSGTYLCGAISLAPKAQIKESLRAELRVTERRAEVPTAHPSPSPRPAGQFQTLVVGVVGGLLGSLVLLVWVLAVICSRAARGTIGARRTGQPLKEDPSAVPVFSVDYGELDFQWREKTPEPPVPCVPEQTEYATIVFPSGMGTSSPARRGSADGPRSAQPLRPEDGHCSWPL

Consider `CC(C)C[C@@H]1NC(=O)[C@H](CCN)NC(=O)[C@@H](CC(C)C)NC(=O)[C@H](C)N(C)C(=O)[C@H](CCCNC(N)=O)NC(=O)[C@H](Cc2ccc(-c3ccccc3)cc2)NC(=O)[C@H](C(C)C)NC(=O)[C@H](Cc2c[nH]c3ccccc23)NC(=O)[C@H](CC(=O)O)NC(=O)[C@H](Cc2ccc(O)c([N+](=O)[O-])c2)NC(=O)[C@H](Cc2ccncc2)NC(=O)CSC[C@@H](C(=O)N[C@@H](C)C(N)=O)NC(=O)[C@H]([C@@H](C)O)NC(=O)[C@H](C(C)C)NC1=O` [Compound 1336] ({CH2CO}-[4Pal][Tyr(3-NO2)]DWV[Bip][Cit][NMeA][dL][Dab]LVTCA-NH2; thioether N-14), for which the IC50 was 0.01 µM.

Take `CCC(C)[C@@H]1NC(=O)[C@H](Cc2ccc(-c3ccccc3)cc2)NC(=O)[C@H](C(C)C)NC(=O)[C@H](Cc2c[nH]c3ccccc23)NC(=O)[C@H](CC(=O)O)NC(=O)[C@H](Cc2ccc(O)cc2)NC(=O)[C@H](Cc2cccnc2)NC(=O)CSC[C@@H](C(=O)N[C@@H](C)C(N)=O)NC(=O)[C@H](C(C)O)NC(=O)[C@H](C(C)C)NC(=O)[C@H](CC2CCCCC2)NC(=O)[C@H](CCN)NC(=O)[C@@H](CC(C)C)NC(=O)[C@H](C)N(C)C1=O` (stereo partly drawn) [Compound 2052] ({CH2CO}-[3Pal]YDWV[Bip][Ile(3ξ)][NMeA][dL][Dab][Cha]V[Thr(3ξ)]CA-NH2; thioether N-14): the IC50 is 0.02 µM.

As for `CC(C)C[C@@H]1NC(=O)[C@H](CCN)NC(=O)[C@@H](CC(C)C)NC(=O)[C@H](C)N(C)C(=O)[C@H](CCCNC(=N)N)NC(=O)[C@H](Cc2ccc(-c3cccc(O)c3)cc2)NC(=O)[C@H](C(C)C)NC(=O)[C@H](Cc2c[nH]c3ccccc23)NC(=O)[C@H](CC(=O)O)NC(=O)[C@H](Cc2ccc(O)cc2)NC(=O)[C@H](CC(N)=O)NC(=O)CSC[C@@H](C(=O)N[C@@H](C)C(N)=O)NC(=O)[C@H]([C@@H](C)O)NC(=O)[C@H](C(C)C)NC1=O` [Compound 1212] ({CH2CO}-NYDWV[X40]R[NMeA][dL][Dab]LVTCA-NH2; thioether N-14), the IC50 came to 0.69 µM.

Consider `CC(C)C[C@@H]1NC(=O)[C@H](CCCNC(=N)N)NC(=O)[C@@H](C(C)C)NC(=O)[C@H](C)N(C)C(=O)[C@H](CCCNC(=N)N)NC(=O)[C@H](Cc2ccc(-c3ccccc3)cc2)NC(=O)[C@H](C(C)C)NC(=O)[C@H](Cc2c[nH]c3ccccc23)NC(=O)[C@H](CC(=O)O)NC(=O)[C@H](Cc2ccc(O)cc2)NC(=O)[C@H](Cc2ccccc2)NC(=O)CSC[C@@H](C(=O)N[C@@H](C)C(N)=O)NC(=O)[C@H]([C@@H](C)O)NC(=O)[C@H](C(C)C)NC1=O` [Compound 1060] ({CH2CO}-FYDWV[Bip]R[NMeA][dV]RLVTCA-NH2; thioether N-14), for which the IC50 is 0.11 µM.

Regarding `CC(C)C[C@@H]1NC(=O)[C@H](Cc2c[nH]c3ccccc23)NC(=O)[C@H](CC(=O)O)NC(=O)[C@H](Cc2ccc(C(=O)O)cc2)NC(=O)[C@H](Cc2ccc(OCC(=O)O)cc2)NC(=O)CSC[C@@H](C(N)=O)NC(=O)[C@H](CO)NC(=O)[C@H](C(C)C)NC(=O)[C@H](CC2CCCCC2)NC(=O)[C@H](CCN)NC(=O)[C@@H](CC(C)C)NC(=O)[C@H](C)N(C)C(=O)[C@H](CCCNC(N)=O)NC(=O)[C@H](Cc2ccc(-c3ccccc3)cc2)NC1=O` [Compound 1636] ({CH2CO}-Y(Carboxymethyl)[Phe(4-COOH)]DWL[Bip][Cit][NMeA][dL][Dab][Cha]VSC-NH2; thioether N-14), the IC50 was 0.01 µM.

Turning to `CC(C)C[C@H]1NC(=O)[C@H](C)N(C)C(=O)[C@H](CCCNC(=N)N)NC(=O)[C@H](Cc2ccc(-c3ccccc3)cc2)NC(=O)[C@H](C(C)C)NC(=O)[C@H](Cc2c[nH]c3ccccc23)NC(=O)[C@H](CC(=O)O)NC(=O)[C@H](Cc2ccc(O)cc2)NC(=O)[C@H](Cc2ccccc2)NC(=O)CSC[C@@H](C(=O)N[C@@H](C)C(N)=O)NC(=O)[C@H]([C@@H](C)O)NC(=O)[C@H](C(C)C)NC(=O)[C@H](CC2CC2)NC(=O)[C@H](CCCNC(=N)N)NC1=O` [Compound 1111] ({CH2CO}-FYDWV[Bip]R[NMeA][dL]R[Ala(cPr)]VTCA-NH2; thioether N-14), the 50% inhibitory concentration (IC50) was 0.07 µM.

With `CC(C)C[C@@H]1NC(=O)[C@H](CCN)NC(=O)[C@@H](CC(C)C)NC(=O)[C@H](C)N(C)C(=O)[C@H](CCC(=O)O)NC(=O)[C@H](Cc2ccc(-c3ccccc3)cc2)NC(=O)[C@H](C(C)C)NC(=O)[C@H](Cc2c[nH]c3ccccc23)NC(=O)[C@H](CC(=O)O)NC(=O)[C@H](Cc2ccc(O)cc2)NC(=O)[C@H](CC(N)=O)NC(=O)CSC[C@@H](C(=O)N[C@@H](C)C(N)=O)NC(=O)[C@H](CCCN)NC(=O)[C@H](C(C)C)NC1=O` [Compound 1238] ({CH2CO}-NYDWV[Bip]E[NMeA][dL][Dab]LV[Orn]CA-NH2; thioether N-14), the IC50 is 0.03 µM.

Turning to `CC(C)C[C@@H]1NC(=O)[C@H](CCN)NC(=O)[C@@H](CC(C)C)NC(=O)[C@@H]2CCN2C(=O)[C@H](C(C)C)NC(=O)[C@H](Cc2ccc(-c3ccccc3)cc2)NC(=O)[C@H](C(C)C)NC(=O)[C@H](Cc2c[nH]c3ccccc23)NC(=O)[C@H](CC(=O)O)NC(=O)[C@H](Cc2ccc(O)cc2)NC(=O)[C@H](CC(N)=O)NC(=O)CSC[C@@H](C(=O)N[C@@H](C)C(N)=O)NC(=O)[C@H]([C@@H](C)O)NC(=O)[C@H](C(C)C)NC1=O` [Compound 1297] ({CH2CO}-NYDWV[Bip]V[Aze][dL][Dab]LVTCA-NH2; thioether N-14), the IC50 came out at 0.32 µM.

Turning to `CCC(C)[C@@H]1NC(=O)[C@H](Cc2ccc(-c3ccccc3)cc2)NC(=O)[C@H](C(C)C)NC(=O)[C@H](Cc2c[nH]c3ccccc23)NC(=O)[C@H](CC(=O)O)NC(=O)[C@H](Cc2ccc(OCC(=O)O)cc2)NC(=O)[C@H](C(C)O)NC(=O)CSC[C@@H](C(=O)N[C@H](CC(N)=O)C(N)=O)NC(=O)[C@H](CO)NC(=O)[C@H](C(C)C)NC(=O)[C@H](CC2CCCCC2)NC(=O)[C@H](CCN)NC(=O)[C@@H](CC(C)C)NC(=O)[C@H](C)N(C)C1=O` (stereo partly drawn) [Compound 2117] ({CH2CO}-[Thr(3ξ)]Y(Carboxymethyl)DWV[Bip][Ile(3ξ)][NMeA][dL][Dab][Cha]VSC[dN]-NH2; thioether N-14), the IC50 turned out to be 0.02 µM.

Turning to `CC(C)C[C@@H]1NC(=O)[C@H](CCN)NC(=O)[C@@H](CC(C)C)NC(=O)[C@H](C)N(C)C(=O)[C@H]([C@@H](C)O)NC(=O)[C@H](Cc2ccc(-c3ccccc3)cc2)NC(=O)[C@H](C(C)C)NC(=O)[C@H](Cc2c[nH]c3ccccc23)NC(=O)[C@H](CC(=O)O)NC(=O)[C@H](Cc2ccc(O)cc2)NC(=O)[C@H](CC(N)=O)NC(=O)CSC[C@@H](C(=O)N[C@@H](C)C(N)=O)NC(=O)[C@H]([C@@H](C)O)NC(=O)[C@H](C(C)C)NC1=O` [Compound 1300] ({CH2CO}-NYDWV[Bip]T[NMeA][dL][Dab]LVTCA-NH2; thioether N-14), the IC50 was 0.02 µM.

Consider `Cc1cccc(C[C@@H]2NC(=O)[C@H](CC(=O)O)NC(=O)[C@H](Cc3ccc(OCC(=O)O)cc3)NC(=O)[C@H](Cc3ccncc3)NC(=O)CSC[C@@H](C(=O)N[C@H](C)C(N)=O)NC(=O)[C@H](CO)NC(=O)[C@H](C(C)(C)O)NC(=O)[C@H](CC3CCCCC3)NC(=O)[C@H](CCN)NC(=O)[C@@H](CC(C)C)NC(=O)[C@H](C)N(C)C(=O)[C@H](Cc3ccc(OCC(=O)O)cc3)NC(=O)[C@H](Cc3ccc(-c4ccccc4)cc3)NC(=O)[C@H](Cc3ccc(C(=O)O)cc3)NC2=O)c1` [Compound 2183] ({CH2CO}-[4Pal]Y(Carboxymethyl)D[Phe(3-Me)][Phe(4-COOH)][Bip]Y(Carboxymethyl)[NMeA][dL][Dab][Cha][Val(3-OH)]SC[dA]-NH2; thioether N-14), for which the IC50 came out at 0.11 µM.

Regarding `Cc1cccc(C[C@@H]2NC(=O)[C@H](CC(=O)O)NC(=O)[C@H](Cc3ccc(OCC(=O)O)cc3)NC(=O)[C@H]([C@@H](C)O)NC(=O)CSC[C@@H](C(N)=O)NC(=O)[C@H]([C@@H](C)O)NC(=O)[C@H](C(C)C)NC(=O)[C@H](CC3CCCCC3)NC(=O)[C@H](CCN)NC(=O)[C@@H](CC(C)C)NC(=O)[C@H](C)N(C)C(=O)[C@H](Cc3ccc(OCC(=O)O)cc3)NC(=O)[C@H](Cc3ccc(-c4ccccc4)cc3)NC(=O)[C@H](Cc3ccc(OCC(=O)O)cc3)NC2=O)c1` [Compound 1672] ({CH2CO}-TY(Carboxymethyl)D[Phe(3-Me)]Y(Carboxymethyl)[Bip]Y(Carboxymethyl)[NMeA][dL][Dab][Cha]VTC-NH2; thioether N-14), the IC50 worked out at 0.09 µM.

Consider `C#CC[C@H](NC(=O)[C@@H](C)NC(=O)[C@@H]1CSCC(=O)N[C@@H](Cc2cnc[nH]2)C(=O)N[C@@H](Cc2ccc(OCC(=O)O)cc2)C(=O)N[C@@H](CC(=O)O)C(=O)N[C@@H](Cc2c[nH]c3ccccc23)C(=O)N[C@@H](C(C)C)C(=O)N[C@@H](Cc2ccc(-c3ccccc3)cc2)C(=O)N[C@@H](C(C)CC)C(=O)N(C)[C@@H](C)C(=O)N[C@H](CC(C)C)C(=O)N[C@@H](CCN)C(=O)N[C@@H](CC2CCCCC2)C(=O)N[C@@H](C(C)(C)O)C(=O)N[C@@H](CO)C(=O)N1)C(=O)O` (stereo partly drawn) [Compound 2239] ({CH2CO}-HY(Carboxymethyl)DWV[Bip][Ile(3ξ)][NMeA][dL][Dab][Cha][Val(3-OH)]SC[dA][Pra]-OH; thioether N-14), for which the IC50 worked out at 0.02 µM.

Turning to `CCC(C)[C@@H]1NC(=O)[C@H](Cc2ccc(-c3ccccc3)cc2)NC(=O)[C@H](C(C)C)NC(=O)[C@H](Cc2c[nH]c3ccccc23)NC(=O)[C@H](CC(=O)O)NC(=O)[C@H](Cc2ccc(O)cc2)NC(=O)[C@H](CC2CCNCC2)NC(=O)CSC[C@@H](C(=O)N[C@@H](C)C(N)=O)NC(=O)[C@H](C(C)O)NC(=O)[C@H](C(C)C)NC(=O)[C@H](CC2CCCCC2)NC(=O)[C@H](CCN)NC(=O)[C@@H](CC(C)C)NC(=O)[C@H](C)N(C)C1=O` (stereo partly drawn) [Compound 2043] ({CH2CO}-[Ala(piperidin-4-yl)]YDWV[Bip][Ile(3ξ)][NMeA][dL][Dab][Cha]V[Thr(3ξ)]CA-NH2; thioether N-14), the IC50 came out at 0.01 µM.
